Test results reported in PubChem BioAssay (NCI).
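In this assay, cells in 96-well plates receive the compound at five concentrations for 48 hours. Endpoints are linearly interpolated between the surrounding concentrations. GI50 = concentration required for 50% inhibition of growth. TGI is the concentration that stops growth completely.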

What was measured:
Assay in all cases: growth of human tumour cells (NCI), 48 h
[1] = tested on: 786-0 renal
[2] = tested on: SF-539 CNS
[3] = tested on: CCRF-CEM leukemia
[4] = tested on: SR leukemia
[5] = tested on: UACC-62 melanoma
[6] = tested on: SW-620 colon
[7] = tested on: HT29 colon
[8] = tested on: HS 578T breast
[9] = tested on: HCT-116 colon
[10] = tested on: K-562 leukemia
[11] = tested on: M14 melanoma
[12] = tested on: MDA-MB-435
[13] = tested on: DU-145 prostate
[14] = tested on: OVCAR-4 ovarian
[15] = tested on: SNB-19 CNS
[16] = tested on: MCF7 breast
[17] = tested on: RXF 393 renal
[18] = tested on: UO-31 renal
[19] = tested on: HOP-62 NSCLC
[20] = tested on: KM12 colon
[21] = tested on: SK-OV-3 ovarian
[22] = tested on: U251 CNS
[23] = tested on: SK-MEL-2 melanoma
[24] = tested on: MDA-MB-231 breast
[25] = tested on: RPMI-8226 leukemia
[26] = tested on: BT-549 breast
[27] = tested on: SK-MEL-5 melanoma
[28] = tested on: T-47D breast
[29] = tested on: IGROV1 ovarian
[30] = tested on: HCT-15 colon
[31] = tested on: UACC-257 melanoma
[32] = tested on: SF-268 CNS
[33] = tested on: NCI-H23 lung
[34] = tested on: CAKI-1 renal
[35] = tested on: SK-MEL-28 melanoma
[36] = tested on: PC-3 prostate
[37] = tested on: A498 renal
[38] = tested on: ACHN renal
[39] = tested on: SF-295 CNS
[40] = tested on: SNB-75 CNS
[41] = tested on: MOLT-4 leukemia
[42] = tested on: HCC-2998 colon
[43] = tested on: HL-60(TB) leukemia
[44] = tested on: NCI/ADR-RES ovarian
[45] = tested on: COLO 205 colon
[46] = tested on: EKVX NSCLC
[47] = tested on: LOX IMVI melanoma
[48] = tested on: TK-10 renal
[49] = tested on: OVCAR-8 ovarian
[50] = tested on: HOP-92 NSCLC
[51] = tested on: NCI-H460 lung
[52] = tested on: NCI-H226 lung
[53] = tested on: A549 NSCLC
[54] = tested on: SN12C renal
[55] = tested on: OVCAR-3 ovarian
[56] = tested on: OVCAR-5 ovarian

Cc1cccc(NC(=S)Nc2ccc(Cl)cc2)n1
TGI [1]: > 100 µM
TGI [2]: > 100 µM
TGI [3]: > 100 µM
TGI [4]: > 100 µM
TGI [5]: > 100 µM
TGI [6]: > 100 µM
TGI [7]: > 100 µM
TGI [8]: > 100 µM
TGI [9]: > 100 µM
TGI [10]: > 100 µM
TGI [11]: > 100 µM
TGI [12]: > 100 µM
TGI [13]: > 100 µM
TGI [14]: > 100 µM
TGI [15]: > 100 µM
TGI [16]: > 100 µM
TGI [17]: > 100 µM
TGI [18]: > 100 µM
TGI [19]: > 100 µM
TGI [20]: > 100 µM
TGI [21]: > 100 µM
TGI [22]: > 100 µM
TGI [23]: > 100 µM
TGI [24]: > 100 µM
TGI [25]: > 100 µM
TGI [26]: > 100 µM
TGI [27]: > 100 µM
TGI [28]: > 100 µM
TGI [29]: > 100 µM
TGI [30]: > 100 µM
TGI [31]: > 100 µM
TGI [32]: > 100 µM
TGI [33]: > 100 µM
TGI [34]: > 100 µM
TGI [35]: > 100 µM
TGI [36]: > 100 µM
TGI [37]: > 100 µM
TGI [38]: > 100 µM
TGI [39]: > 100 µM
TGI [40]: > 100 µM
TGI [41]: > 100 µM
TGI [42]: > 100 µM
TGI [43]: > 100 µM
TGI [44]: > 100 µM
TGI [45]: > 100 µM
TGI [46]: > 100 µM
TGI [47]: > 100 µM
TGI [48]: > 100 µM
TGI [49]: > 100 µM
TGI [50]: > 100 µM
TGI [51]: > 100 µM
TGI [52]: > 100 µM

CC(=O)OCC1OC(OC2CCCC[Si](c3ccccc3)(c3ccccc3)O2)C(OC(C)=O)C(OC(C)=O)C1OC(C)=O (configuration not stated)
GI50 [1]: > 100 µM
TGI [1]: > 100 µM
GI50 [53]: > 100 µM
TGI [53]: > 100 µM
GI50 [2]: 29.2 µM
TGI [2]: 79.1 µM
GI50 [3]: 35.5 µM
TGI [3]: > 100 µM
GI50 [4]: 73.6 µM
TGI [4]: > 100 µM
GI50 [5]: > 100 µM
TGI [5]: > 100 µM
GI50 [6]: 53 µM
TGI [6]: > 100 µM
GI50 [7]: > 100 µM
TGI [7]: > 100 µM
GI50 [8]: > 100 µM
TGI [8]: > 100 µM
GI50 [9]: 24.5 µM
TGI [9]: 59.2 µM
GI50 [10]: 56.1 µM
TGI [10]: > 100 µM
GI50 [11]: > 100 µM
TGI [11]: > 100 µM
GI50 [12]: 51 µM
TGI [12]: > 100 µM
GI50 [13]: > 100 µM
TGI [13]: > 100 µM
GI50 [14]: > 100 µM
TGI [14]: > 100 µM
GI50 [15]: > 100 µM
TGI [15]: > 100 µM
GI50 [16]: 69.2 µM
TGI [16]: > 100 µM
GI50 [17]: > 100 µM
TGI [17]: > 100 µM
GI50 [19]: > 100 µM
TGI [19]: > 100 µM
GI50 [20]: > 100 µM
TGI [20]: > 100 µM
GI50 [21]: > 100 µM
TGI [21]: > 100 µM
GI50 [22]: > 100 µM
TGI [22]: > 100 µM
GI50 [54]: > 100 µM
TGI [54]: > 100 µM
GI50 [24]: > 100 µM
TGI [24]: > 100 µM
GI50 [25]: 32.6 µM
TGI [25]: > 100 µM
GI50 [26]: > 100 µM
TGI [26]: > 100 µM
GI50 [27]: > 100 µM
TGI [27]: > 100 µM
GI50 [28]: > 100 µM
TGI [28]: > 100 µM
GI50 [30]: > 100 µM
TGI [30]: > 100 µM
GI50 [31]: > 100 µM
TGI [31]: > 100 µM
GI50 [32]: > 100 µM
TGI [32]: > 100 µM
GI50 [33]: > 100 µM
TGI [33]: > 100 µM
GI50 [34]: 38.9 µM
TGI [34]: > 100 µM
GI50 [35]: > 100 µM
TGI [35]: > 100 µM
GI50 [36]: > 100 µM
TGI [36]: > 100 µM
GI50 [37]: > 100 µM
TGI [37]: > 100 µM
GI50 [55]: 13.3 µM
TGI [55]: 69.5 µM
GI50 [38]: > 100 µM
TGI [38]: > 100 µM
GI50 [39]: > 100 µM
TGI [39]: > 100 µM
GI50 [41]: 10.3 µM
TGI [41]: > 100 µM
GI50 [42]: > 100 µM
TGI [42]: > 100 µM
GI50 [44]: > 100 µM
TGI [44]: > 100 µM
GI50 [45]: > 100 µM
TGI [45]: > 100 µM
GI50 [46]: > 100 µM
TGI [46]: > 100 µM
GI50 [47]: 53.6 µM
TGI [47]: > 100 µM
GI50 [48]: > 100 µM
TGI [48]: > 100 µM
GI50 [49]: > 100 µM
TGI [49]: > 100 µM
GI50 [50]: > 100 µM
TGI [50]: > 100 µM
GI50 [51]: > 100 µM
TGI [51]: > 100 µM
GI50 [56]: > 100 µM
TGI [56]: > 100 µM
